Assays:
Assay type in all cases: in vivo, Macaque Rh. monkeys
T-helpers = T-helpers in monkeys after kidney transplantation; conditions: for T-helpers: 50 μg/kg IV, 2 days pre-op. 30
Protocol: (§1) FLOW CYTOFLUOROGRAFIC ANALYSIS OF LYMPHOCYTE SUBSETS
(§2) Blood samples (100 μl of whole blood) were placed into a 12×17 tube. To these cells 20 μl of purified monoclonal antibodies were added with specificity for human cytotoxic/suppressor cells anti-Leu-2a (CD8), human helper/inducer anti-Leu-3a (CD4) and FITC conjugated monoclonal antibodies with specificity for natural killer cells-anti-Leu11c (CD16) (Becton Dickinson, San Jose). After 30 minutes incubation on ice, the cells were washed once and 20 μl of goat-antimouse chain phycoerythrin (Sigma P1286) conjugate were added to the tube with anti-Leu-2a and anti-Leu-3a monoclonal antibodies.
(§3) After erythrocyte lysing with FACS lysing solution (Becton Dickinson, San Jose) the cells were analyzed on FACScan flow cytometer (Becton Dickinson, San Jose) with scatter gate set on lymphocyte fraction.
The experiments were performed on 4 year-old Macaque Rh. monkeys. Each cohort consisted of 3 animals. […] The results of the experiments were evaluated clinically: by the presence or absence of urination from the ureterocutaneostoma.
After intravenous anesthesia with Ketalar®, an extraperitoneal access to the left kidney was performed through layer by layer cuts to the left lumbar region. The kidney was excised from the surrounding tissues. A clamp was applied to the vessel limb; the artery, the vein and the ureter each were prepared for anastomosis separately. The kidney was excised and transferred for hypothermal conservation in Collins' solution.
The donor kidney was transplanted into the recipient. […] anastomosis was performed: the graft arteries and veins attached to the appropriate recipient kidney vessels through plastic tubes. The kidney having been resuscitated by in blood flow, acquired the normal color and turgor. Additional hemostasis in the wound was performed. Ureterocutaneostomy was performed, which was followed by applying layer-upon-layer sutures on the wound and its aseptic dressing.
The monkeys were narcotized by means of the intravenous anesthesia with Ketalar® and subjected to medial laparotomy from the xiphoid down to the pubic joint. Access to the left Kidney was made extraperitoneally. The kidney was teased from the surrounding tissues. A clamp was put on the vessel limb; the artery, the vein and the ureter were dressed separately; the kidney was cut and transferred for hypothermal conservation in Collins' solution.
The internal iliac artery and the external iliac vein were extracted extra-peritoneally, immobilized and prepared for anastomosis. The donor kidney was transferred to the recipient. Vessel anastomosis was performed: the graft arteries were anastomosed with the internal iliac artery according to the end-to-end method and the graft veins were anastomosed with the external iliac vein according to the end-to-side method. The kidney having been engaged in blood flow, acquired a normal color and turgor. Bleeding on the line of the arterial anastomosis was stopped by making additional sutures. Ureterocutaneostomy was performed. The abdominal cavity was lavaged with the solution of disodium carbenicillin. Layer-upon-layer sutures on the wound were applied. Aseptic dressing was performed.
During our experiments we have divided monkeys into two groups, three monkeys to each group. For the first group (2'-5')A2 Ar-epoxy was administered intravenously at concentration of 50 μg/kg two days before the operation and at the second, sixth, and twelfth day after the operation and then every sixth day. […] After transplantation kidney functions were restored within 10 hours.
The administration schedule of (2'-5')A2 Ar-epoxy was modified slightly for the second group of monkeys. The preparation was injected two days before the operation and every other day at a concentration of 50 μg/kg during the entire post-transplantation period. […] The number of T-helpers dropped correspondingly from 37% to 7%. […] During the entire postoperative period, this activity tendency continues.

T-killers = test: Immune system of monkeys: T-killers, flow cytofluorografic analysis
Protocol: The experiments were performed on 4 year-old Macaque Rh. monkeys. The levels of the principal subpopulations of T-lymphocytes, IgA, IgG, IgM and the amount of α- and γ-interferon and interleukin II after administration (2'-5')olygoadenylate and its analogies at the concentration of 50 and 25 μg/kg of the body weight was investigated.
as §1, §2, §3

IgG, IgA, IgM = test: Immune system of monkeys: serum immunoglobulins by radial immunodiffusion
Protocol: Immunosuppressive activity of the prototype 2'-5'A3 and two analogues (2'-5')A2 Ar-epoxy and (2'-5')A2 A^l-epoxy were investigated in monkeys. The experiments were performed on 4 year-old Macaque Rh. monkeys. The levels of the principal subpopulations of T-lymphocytes, IgA, IgG, IgM and the amount of α- and γ-interferon and interleukin II after administration (2'-5')olygoadenylate and its analogies at the concentration of 50 and 25 μg/kg of the body weight was investigated.
IMMUNOGLOBULIN DETERMINATION
Serum levels of IgG, IgA, IgM were determined by radial immunodiffusion using antisera against human immunoglobulin A, M, G. The amount of interferon and interleukine-II were determined by the method of Lopez-Botet M. et al., 1982.

[1] = single IV 25 μg/kg, day 0 (baseline)
[2] = single IV 50 μg/kg, day 0 (baseline)

**Q.** How did the T-helpers (T-helpers; day 1 post-op.) turn out when “Adenylyl (2'-5')adenylyl (2'-5')-9-(2,3-anhydro-β-D-ribofuranosyl) adenine disodium salt [(2'-5')A2 Ar-epoxy]” was run?
**A.** Its T-helpers is 8%.

**Q.** And the T-helpers (T-helpers; day 5 post-op.)?
**A.** Its T-helpers is 39.9%.

**Q.** What about the T-helpers (T-helpers; day 8 post-op.) of the same substance?
**A.** The T-helpers was 32%.

**Q.** And the T-helpers (T-helpers; day 13 post-op.)?
**A.** The T-helpers was 34.7%.

**Q.** What about the T-helpers (T-helpers; day 18 post-op.) of the same substance?
**A.** Its T-helpers is 14.5%.

**Q.** And the “number of T-helpers” value (T-helpers; second group, 50 μg/kg every other day, 7 days after surgery, from 37%)?
**A.** Its value is 7%.

**Q.** And the T-killers (T-killers; [1])?
**A.** Its T-killers is 9.9%.

**Q.** What about the T-killers (T-killers; single IV 25 μg/kg, day 1) of the same substance?
**A.** The T-killers was 12%.

**Q.** And the T-killers (T-killers; single IV 25 μg/kg, day 2)?
**A.** Its T-killers is 8%.

**Q.** What about the T-killers (T-killers; single IV 25 μg/kg, day 4) of the same substance?
**A.** The T-killers was 4%.

**Q.** What about the T-killers (T-killers; single IV 25 μg/kg, day 8) of the same substance?
**A.** Its T-killers is 4%.

**Q.** What about the T-killers (T-killers; single IV 25 μg/kg, day 12) of the same substance?
**A.** The T-killers was 4%.

**Q.** And the T-killers (T-killers; single IV 25 μg/kg, day 21)?
**A.** Its T-killers is 6.4%.

**Q.** And the T-killers (T-killers; [2])?
**A.** Its T-killers is 12%.

**Q.** And the T-killers (T-killers; single IV 50 μg/kg, day 1)?
**A.** Its T-killers is 9%.

**Q.** And the T-killers (T-killers; single IV 50 μg/kg, day 2)?
**A.** Its T-killers is 7%.

**Q.** What about the T-killers (T-killers; single IV 50 μg/kg, day 4) of the same substance?
**A.** Its T-killers is 1.5%.

**Q.** What about the T-killers (T-killers; single IV 50 μg/kg, day 8) of the same substance?
**A.** Its T-killers is 4.4%.

**Q.** What about the T-killers (T-killers; single IV 50 μg/kg, day 12) of the same substance?
**A.** The T-killers was 9%.

**Q.** And the T-killers (T-killers; single IV 50 μg/kg, day 21)?
**A.** Its T-killers is 19.3%.

**Q.** And the IgA (IgG, IgA, IgM; [1])?
**A.** The IgA was 2.8 g/L.

**Q.** And the IgG (IgG, IgA, IgM; [1])?
**A.** Its IgG is 7.5 g/L.

**Q.** And the IgM (IgG, IgA, IgM; [1])?
**A.** The IgM was 0.5 g/L.

**Q.** And the IgA (IgG, IgA, IgM; single IV 25 μg/kg, day 1)?
**A.** Its IgA is 2.0 g/L.

**Q.** And the IgG (IgG, IgA, IgM; single IV 25 μg/kg, day 1)?
**A.** The IgG was 7.4 g/L.

**Q.** And the IgM (IgG, IgA, IgM; single IV 25 μg/kg, day 1)?
**A.** Its IgM is 0.6 g/L.

**Q.** What about the IgA (IgG, IgA, IgM; single IV 25 μg/kg, day 2) of the same substance?
**A.** The IgA was 1.1 g/L.

**Q.** What about the IgG (IgG, IgA, IgM; single IV 25 μg/kg, day 2) of the same substance?
**A.** Its IgG is 5.2 g/L.

**Q.** What about the IgM (IgG, IgA, IgM; single IV 25 μg/kg, day 2) of the same substance?
**A.** The IgM was 1.0 g/L.

**Q.** What about the IgA (IgG, IgA, IgM; single IV 25 μg/kg, day 8) of the same substance?
**A.** Its IgA is 0.53 g/L.

**Q.** And the IgG (IgG, IgA, IgM; single IV 25 μg/kg, day 8)?
**A.** Its IgG is 14.5 g/L.

**Q.** And the IgM (IgG, IgA, IgM; single IV 25 μg/kg, day 8)?
**A.** Its IgM is 1.41 g/L.

**Q.** And the IgA (IgG, IgA, IgM; single IV 25 μg/kg, day 21)?
**A.** The IgA was 0.38 g/L.

**Q.** And the IgG (IgG, IgA, IgM; single IV 25 μg/kg, day 21)?
**A.** Its IgG is 14.48 g/L.

**Q.** And the IgM (IgG, IgA, IgM; single IV 25 μg/kg, day 21)?
**A.** The IgM was 1.2 g/L.

**Q.** What about the IgA (IgG, IgA, IgM; [2]) of the same substance?
**A.** Its IgA is 2.8 g/L.

**Q.** What about the IgG (IgG, IgA, IgM; [2]) of the same substance?
**A.** The IgG was 9.6 g/L.

**Q.** What about the IgM (IgG, IgA, IgM; [2]) of the same substance?
**A.** The IgM was 0.6 g/L.

**Q.** And the IgA (IgG, IgA, IgM; single IV 50 μg/kg, day 1)?
**A.** Its IgA is 2.7 g/L.

**Q.** What about the IgG (IgG, IgA, IgM; single IV 50 μg/kg, day 1) of the same substance?
**A.** The IgG was 7.8 g/L.

**Q.** And the IgM (IgG, IgA, IgM; single IV 50 μg/kg, day 1)?
**A.** The IgM was 0.5 g/L.

**Q.** And the IgA (IgG, IgA, IgM; single IV 50 μg/kg, day 2)?
**A.** The IgA was 0.8 g/L.

**Q.** And the IgG (IgG, IgA, IgM; single IV 50 μg/kg, day 2)?
**A.** Its IgG is 15.0 g/L.

**Q.** And the IgM (IgG, IgA, IgM; single IV 50 μg/kg, day 2)?
**A.** The IgM was 1.1 g/L.

**Q.** And the IgA (IgG, IgA, IgM; single IV 50 μg/kg, day 8)?
**A.** The IgA was 0.9 g/L.

**Q.** And the IgG (IgG, IgA, IgM; single IV 50 μg/kg, day 8)?
**A.** The IgG was 14.8 g/L.

**Q.** What about the IgM (IgG, IgA, IgM; single IV 50 μg/kg, day 8) of the same substance?
**A.** Its IgM is 0.9 g/L.

**Q.** What about the IgA (IgG, IgA, IgM; single IV 50 μg/kg, day 21) of the same substance?
**A.** Its IgA is 0.38 g/L.

**Q.** What about the IgG (IgG, IgA, IgM; single IV 50 μg/kg, day 21) of the same substance?
**A.** The IgG was 13.2 g/L.

**Q.** What about the IgM (IgG, IgA, IgM; single IV 50 μg/kg, day 21) of the same substance?
**A.** The IgM was 0.78 g/L.

From patent US5571799A, “(2'-5') oligoadenylate analogues useful as inhibitors of host-v5.-graft response” (Basco, Ltd., priority 1994, dated 1996)
